Results as given in US9073936B2, “Organic compounds” (INTRA-CELLULAR THERAPIES, INC., priority 2013, dated 2015).
pIC50, pKi: −log10 of the molar value.

How the values were obtained:
[1] = molecular target: PDE1; assay: PDE1 inhibition in vitro, IMAP phosphodiesterase assay; format: biochemical; settings: cGMP-fluorescein substrate, read-out: IC50 (PDE1 inhibitory activity)
Text: (§1) Phosphodiesterase 1 (PDE1) is a calcium/calmodulin dependent phosphodiesterase enzyme that converts cyclic guanosine monophosphate (cGMP) to 5′-guanosine monophosphate (5′-GMP). PDE1 can also convert a modified cGMP substrate, such as the fluorescent molecule cGMP-fluorescein, to the corresponding GMP-fluorescein. The generation of GMP-fluorescein from cGMP-fluorescein can be quantitated, using, for example, the IMAP (Molecular Devices, Sunnyvale, Calif.) immobilized-metal affinity particle reagent.
(§2) Briefly, the IMAP reagent binds with high affinity to the free 5′-phosphate that is found in GMP-fluorescein and not in cGMP-fluorescein. The resulting GMP-fluorescein-IMAP complex is large relative to cGMP-fluorescein. Small fluorophores that are bound up in a large, slowly tumbling, complex can be distinguished from unbound fluorophores, because the photons emitted as they fluoresce retain the same polarity as the photons used to excite the fluorescence.
(§3) In the phosphodiesterase assay, cGMP-fluorescein, which cannot be bound to IMAP, and therefore retains little fluorescence polarization, is converted to GMP-fluorescein, which, when bound to IMAP, yields a large increase in fluorescence polarization (Δmp). Inhibition of phosphodiesterase, therefore, is detected as a decrease in Δmp.
Materials: All chemicals are available from Sigma-Aldrich (St. Louis, Mo.) except for IMAP reagents (reaction buffer, binding buffer, FL-GMP and IMAP beads), which are available from Molecular Devices (Sunnyvale, Calif.).
Assay: The following phosphodiesterase enzymes may be used: 3′,5′-cyclic-nucleotide-specific bovine brain phosphodiesterase (Sigma, St. Louis, Mo.) and recombinant full length human PDE1A and PDE1B (r-hPDE1A and r-hPDE1B, respectively) which may be produced e.g., in HEK or SF9 cells by one skilled in the art. The PDE1 enzyme is reconstituted with 50% glycerol to 2.5 U/ml. One unit of enzyme will hydrolyze 1.0 μmole of 3′,5′-cAMP to 5′-AMP per min at pH 7.5 at 30° C. […] 99 μl of diluted enzyme solution is added into each well in a flat bottom 96-well polystyrene plate to which 1 μl of test compound dissolved in 100% DMSO is added. The test compounds are mixed and pre-incubated with the enzyme for 10 min at room temperature.
(§4) The plate is incubated at room temperature for 1 hour to allow IMAP binding to proceed to completion, and then placed in an Envision multimode microplate reader (PerkinElmer, Shelton, Conn.) to measure the fluorescence polarization (Δmp).
(§5) A decrease in GMP concentration, measured as decreased Δmp, is indicative of inhibition of PDE activity.

[2] = molecular target: recombinant full length human PDE1A (r-hPDE1A) (Homo sapiens (Human), UniProt P54750); assay: PDE1 inhibition in vitro, IMAP phosphodiesterase assay (r-hPDE1A); format: biochemical
Text: as §1, §2, §3
(§6) Materials: All chemicals are available from Sigma-Aldrich (St. Louis, Mo.) except for IMAP reagents (reaction buffer, binding buffer, FL-GMP and IMAP beads), which are available from Molecular Devices (Sunnyvale, Calif.). […]
as §4, with “The reaction is incubated in dark at room temperature for 15 min. […] The” for “The”
as §5

[3] = molecular target: recombinant full length human PDE1B (r-hPDE1B) (Homo sapiens (Human), UniProt Q01064); assay: PDE1 inhibition in vitro, IMAP phosphodiesterase assay (r-hPDE1B); format: biochemical
Text: as §1, §2, §3, §6
as §4, with “The reaction is incubated in dark at room temperature for 15 min. […] The” for “The”
as §5

[4] = Metabolism rates in human liver microsomes (stability); format: in vitro ADME; settings: pooled human liver microsomes, pH 7.5, 0.5 mg/ml protein, 1 μM test compound, NADPH, 37° C., read-out: T1/2 in human liver microsomes
Protocol: Pooled human liver microsomes (final protein concentration 0.5 mg/ml) are incubated with test compound (final concentration 1 μM) in the presence of a NADPH regenerating system. The final buffer composition is: 1 mM EDTA, 100 mM potassium phosphate pH 7.5. The reactions are initiated by addition of the cofactor NADPH, and terminated after a 0, 15, 30, 45 and 60 minute incubation at 37° C. by addition of cold acetonitrile containing the internal analysis standard. After centrifuging at 4000 rpm for 20 minutes at 4° C., the supernatant are transferred for analysis using HPLC/MS/MS to measure the disappearance of the test compound. The percentage of the test compound remaining over time is calculated relative to the zero time point. The intrinsic clearance rates were calculated based on percentage of compound remaining at the 15-60 min. time points.

[5] = system: C57BL/6 mice; assay: Haloperidol induced catalepsy model (bar grip test); format: in vivo, mouse; settings: haloperidol 3 mg/Kg PO, step down latency
Text: To evaluate the potential beneficial effects to motor defects present in schizophrenics treated with typical and atypical antipsychotic agents and in Parkinson's disease patients, the compounds of the invention may be tested in a reversal of catalepsy model in which motor freezing, or catalepsy, is induced by potent dopamine D2 receptor antagonists such as haloperidol or risperidone. The method uses the “bar grip test”, in which the front paws of the mouse are placed so as to grip a 3 mm-diameter, suspended wooden bar. A “step down latency” is measured by recording the time until the mouse removes its paws from the wooden bar to the floor surface. Catalepsy is a freezing of the musculature that prevents the mouse from moving off the bar. […]
A catalepsy score is recorded for each mouse at 2, 3, 4, and 6 hours after administration of drugs. […] The latency until the mouse steps both paws down from the bar to the floor surface (i.e., step down latency) is recorded up to 120 sec. […] If none of the 10 attempts are beyond 10 sec, the longest duration recorded is used as the catalepsy score. Otherwise, the initial cataleptic duration (>10 sec) is recorded during the 120 sec testing time. Mean step down latency is calculated for each treatment group.

[6] = system: rats; assay: Novel Object Recognition assay; format: in vivo; settings: rat, PO, dosed 2 hours before T1, 24 h interval
Text: To measure the cognition-enhancing effects of the compounds of the invention, the candidate compounds may be evaluated in a Novel Object Recognition (NOR) assay. This assay protocol is described in detail in Ennaceur et al., Behav. Brain Res. (1988) 31:47-59 and Prickaerts et al., Eur. J. Pharmacol. (1997) 337:125-136, the contents of each of which are incorporated by reference in their entirety. In this protocol, the rats are introduced to a chamber at time T1 and allowed to interrogate two identical “familiar objects” for six minutes. Twenty-four hours later, they are re-introduced to this chamber, where one of the familiar objects has been replaced with a novel object. The “discrimination index”, a measure of the time spent in close proximity to the novel over the familiar object, may then be measured. Since rodents will forget the original experiment at T1 within 4 hours, this test with a 24 h interval is a measure of strong cognitive enhancement.
This assay protocol can be modified in order to evaluate different phases of memory. There are three general phases of memory, namely, acquisition, consolidation and retrieval. In this modified protocol, the rats may be dosed with the candidate compound two hours before T1 and tested 24 h later without additional dosing. This is a test of the acquisition process. […]

| Compound | pIC50 [1] | pKi [2] | pKi [3] | half-life at 1 μM [4] [h] | minimal effective dose, catalepsy model [5] [mg/kg] | minimal effective dose, Novel Object Recognition [6] [mg/kg] |
| --- | --- | --- | --- | --- | --- | --- |
| CC(O)c1ccc(Cn2nc3c(c2Nc2ccc(F)cc2)C(=O)N(C)C2=NC(C)(C)CN23)cc1 (stereo not drawn) [Example 2, 7,8-Dihydro-2-(4-(1-hydroxyethyl)benzyl)-3-(4-fluorophenylamino)-5,7,7-trimethyl-[2H]-imidazo-[1,2-a]pyrazolo[4,3-e]pyrimidin-4(5H)-one] | ≥ 8.30 | 9.30 | 8.40 | – | – | – |
| CC(=O)c1ccc(Cn2nc3c(c2Nc2ccc(F)c(C)c2)C(=O)N(C)C2=NC(C)(C)CN23)cc1 [Example 4, 7,8-Dihydro-2-(4-acetylbenzyl)-3-(4-fluoro-3-methylphenylamino)-5,7,7-trimethyl-[2H]-imidazo-[1,2-a]pyrazolo[4,3-e]pyrimidin-4(5H)-one] | ≥ 8.30 | 10.00 | 9.40 | 1.12 | – | – |
| CC(=O)c1ccc(Cn2nc3c(c2Nc2ccc(F)cc2)C(=O)N(C)C2=NC(C)(C)CN23)cc1 [Example 1, 7,8-Dihydro-2-(4-acetylbenzyl)-3-(4-fluorophenylamino)-5,7,7-trimethyl-[2H]-imidazo-[1,2-a]pyrazolo[4,3-e]pyrimidin-4(5H)-one] | ≥ 8.30 | – | – | 2.85 | 0.1 | 0.1 |
| CC(=O)c1ccc(Cn2nc3c(c2Nc2ccc(F)c(F)c2)C(=O)N(C)C2=NC(C)(C)CN23)cc1 [Example 3, 7,8-Dihydro-2-(4-acetylbenzyl)-3-(3,4-difluorophenylamino)-5,7,7-trimethyl-[2H]-imidazo-[1,2-a]pyrazolo[4,3-e]pyrimidin-4(5H)-one] | ≥ 8.30 | 9.52 | 8.40 | 1.3 | – | – |
